Measurements taken from article PMC5218480 (PLoS ONE, 2017).

System: MV-4-11 cells
Assay: Gene expression microarray analysis (Affymetrix PrimeView) and GSEA
Format: cell-based, human
Design: RFU PODN (11730768_x_at) / Fold change /veh PODN (11730768_x_at) / RFU LINC00158 (11744669_a_at) / Fold change /veh LINC00158 (11744669_a_at) / RFU DUSP10 (11751237_a_at) / Fold change /veh DUSP10 (11751237_a_at) / RFU ID3 (11757404_x_at) / Fold change /veh ID3 (11757404_x_at) / RFU PLEKHG5 (11737974_s_at) / Fold change /veh PLEKHG5 (11737974_s_at) / RFU LRRC4B (11730491_at) / Fold change /veh LRRC4B (11730491_at) / RFU GIMAP4 (11747438_a_at) / Fold change /veh GIMAP4 (11747438_a_at) / RFU KRT8 (11758183_x_at) / Fold change /veh KRT8 (11758183_x_at) / RFU CNN1 (11734310_a_at) / Fold change /veh CNN1 (11734310_a_at) / RFU VPS37D (11726825_at) / Fold change /veh VPS37D (11726825_at) / RFU C10orf10 (11716522_x_at) / Fold change /veh C10orf10 (11716522_x_at) / RFU KIR2DL2 /// KIR2DL4 /// KIR2DL5A /// KIR2DL5B /// KIR2DS1 /// KIR2DS2 /// KIR2DS3 /// KIR2DS4 /// KIR3DL3 /// KIR3DL3 /// KIR3DS1 (11738374_at) / Fold change /veh KIR2DL2 /// KIR2DL4 /// KIR2DL5A /// KIR2DL5B /// KIR2DS1 /// KIR2DS2 /// KIR2DS3 /// KIR2DS4 /// KIR3DL3 /// KIR3DL3 /// KIR3DS1 (11738374_at) / RFU C1QL1 (11718748_at) / Fold change /veh C1QL1 (11718748_at) / RFU TMPRSS4 (11747572_a_at) / Fold change /veh TMPRSS4 (11747572_a_at) / RFU HAMP (11756126_x_at) / Fold change /veh HAMP (11756126_x_at) / RFU RNFT2 (11725882_a_at) / Fold change /veh RNFT2 (11725882_a_at) / RFU NR4A2 (11747474_a_at) / Fold change /veh NR4A2 (11747474_a_at) / RFU ABCC12 (11746883_a_at) / Fold change /veh ABCC12 (11746883_a_at) / RFU TMEM136 (11760407_x_at) / Fold change /veh TMEM136 (11760407_x_at) / RFU CLDN22 /// WWC2 (11732394_at) / Fold change /veh CLDN22 /// WWC2 (11732394_at) / RFU HLA-DPB1 (11760878_x_at) / Fold change /veh HLA-DPB1 (11760878_x_at) / RFU SPINT1 (11716480_a_at) / Fold change /veh SPINT1 (11716480_a_at) / RFU GAP43 (11754022_s_at) / Fold change /veh GAP43 (11754022_s_at) / RFU A4GNT (11735810_at) / Fold change /veh A4GNT (11735810_at) / RFU PRB3 (11715151_x_at) / Fold change /veh PRB3 (11715151_x_at) / RFU TUBB4B (11761932_at) / Fold change /veh TUBB4B (11761932_at) / RFU CAPN14 (11732068_a_at) / Fold change /veh CAPN14 (11732068_a_at) / RFU TMCC2 (11721928_a_at) / Fold change /veh TMCC2 (11721928_a_at) / RFU IRGQ (11745062_a_at) / Fold change /veh IRGQ (11745062_a_at) / RFU FAM174B (11720279_a_at) / Fold change /veh FAM174B (11720279_a_at) / RFU TMPRSS4 (11748680_a_at) / Fold change /veh TMPRSS4 (11748680_a_at) / RFU FAM212B (11763350_a_at) / Fold change /veh FAM212B (11763350_a_at) / RFU PLEKHG5 (11743358_a_at) / Fold change /veh PLEKHG5 (11743358_a_at) / RFU ZSCAN30 (11745921_a_at) / Fold change /veh ZSCAN30 (11745921_a_at) / RFU CMKLR1 (11741424_a_at) / Fold change /veh CMKLR1 (11741424_a_at) / RFU LOC101060620 /// MAPK8IP1 (11723275_at) / Fold change /veh LOC101060620 /// MAPK8IP1 (11723275_at) / RFU SPTSSB (11747773_x_at) / Fold change /veh SPTSSB (11747773_x_at) / RFU PRSS12 (11739890_at) / Fold change /veh PRSS12 (11739890_at) / RFU BIN1 (11741810_x_at) / Fold change /veh BIN1 (11741810_x_at) / RFU WNT11 (11732464_a_at) / Fold change /veh WNT11 (11732464_a_at) / RFU C10orf10 (11716521_a_at) / Fold change /veh C10orf10 (11716521_a_at) / RFU C5orf56 (11738089_at) / Fold change /veh C5orf56 (11738089_at) / RFU CYB561 (11721691_x_at) / Fold change /veh CYB561 (11721691_x_at) / RFU ANKRD19P (11752326_a_at) / Fold change /veh ANKRD19P (11752326_a_at) / RFU OR2T12 /// OR2T33 /// OR2T8 (11738714_s_at) / Fold change /veh OR2T12 /// OR2T33 /// OR2T8 (11738714_s_at) / RFU VCAN (11748164_a_at) / Fold change /veh VCAN (11748164_a_at) / RFU JSRP1 (11732532_at) / Fold change /veh JSRP1 (11732532_at) / RFU KRTAP10-11 (11738290_x_at) / Fold change /veh KRTAP10-11 (11738290_x_at) / RFU MYO3A (11730013_a_at) / Fold change /veh MYO3A (11730013_a_at) / RFU EBF3 (11725865_a_at) / Fold change /veh EBF3 (11725865_a_at) / RFU CAMK2N1 (11719241_x_at) / Fold change /veh CAMK2N1 (11719241_x_at) / RFU C5orf56 (11738088_a_at) / Fold change /veh C5orf56 (11738088_a_at) / RFU OLFML3 (11715873_a_at) / Fold change /veh OLFML3 (11715873_a_at) / RFU LOC100653217 /// NTM (11731650_a_at) / Fold change /veh LOC100653217 /// NTM (11731650_a_at) / RFU MAPK11 (11762145_a_at) / Fold change /veh MAPK11 (11762145_a_at) / RFU FIZ1 (11724087_x_at) / Fold change /veh FIZ1 (11724087_x_at) / RFU OASL (11726364_x_at) / Fold change /veh OASL (11726364_x_at) / RFU SOX15 (11748057_x_at) / Fold change /veh SOX15 (11748057_x_at) / RFU CD79A (11719716_a_at) / Fold change /veh CD79A (11719716_a_at) / RFU HIST1H1D (11736915_at) / Fold change /veh HIST1H1D (11736915_at) / RFU CASKIN2 (11723855_a_at) / Fold change /veh CASKIN2 (11723855_a_at) / RFU LOC730098 (11760151_x_at) / Fold change /veh LOC730098 (11760151_x_at) / RFU OR4N2 (11742367_at) / Fold change /veh OR4N2 (11742367_at) / RFU PRRT2 (11749266_a_at) / Fold change /veh PRRT2 (11749266_a_at) / RFU SNX32 (11753110_a_at) / Fold change /veh SNX32 (11753110_a_at) / RFU CDHR5 (11726645_a_at) / Fold change /veh CDHR5 (11726645_a_at) / RFU RCAN1 (11760418_a_at) / Fold change /veh RCAN1 (11760418_a_at) / RFU FAM167A (11723789_a_at) / Fold change /veh FAM167A (11723789_a_at) / RFU FAM26E (11764081_at) / Fold change /veh FAM26E (11764081_at) / RFU ISYNA1 (11749810_s_at) / Fold change /veh ISYNA1 (11749810_s_at) / RFU ACY1 (11761880_at) / Fold change /veh ACY1 (11761880_at) / RFU 11764098_at / Fold change /veh 11764098_at / RFU SAMD14 (11745864_x_at) / Fold change /veh SAMD14 (11745864_x_at) / RFU NPB (11741838_a_at) / Fold change /veh NPB (11741838_a_at) / RFU TMPRSS6 (11731388_a_at) / Fold change /veh TMPRSS6 (11731388_a_at) / RFU KRTAP10-2 (11738614_at) / Fold change /veh KRTAP10-2 (11738614_at) / RFU ARHGAP8 /// PRR5-ARHGAP8 (11727945_x_at) / Fold change /veh ARHGAP8 /// PRR5-ARHGAP8 (11727945_x_at) / RFU KRTAP5-7 /// NADSYN1 (11734609_at) / Fold change /veh KRTAP5-7 /// NADSYN1 (11734609_at) / RFU RASL12 (11751679_a_at) / Fold change /veh RASL12 (11751679_a_at) / RFU CDKN2B (11736163_a_at) / Fold change /veh CDKN2B (11736163_a_at) / RFU PRF1 (11729649_at) / Fold change /veh PRF1 (11729649_at) / RFU, ZNF638 /// ZNF638-IT1 / Fold change vs veh, ZNF638 /// ZNF638-IT1 / RFU, PANK3 / Fold change vs veh, PANK3 / RFU, SH3YL1 / Fold change vs veh, SH3YL1 / RFU, ZEB2 / Fold change vs veh, ZEB2 / RFU, NRIP1 / Fold change vs veh, NRIP1 / RFU, PTTG1IP / Fold change vs veh, PTTG1IP / RFU, CAPN2 / Fold change vs veh, CAPN2 / RFU, MED14 / Fold change vs veh, MED14 / RFU, SNORA58 / Fold change vs veh, SNORA58 / RFU, C1orf63 / Fold change vs veh, C1orf63 / RFU, LRRFIP1 / Fold change vs veh, LRRFIP1 / RFU, NDUFAF7 / Fold change vs veh, NDUFAF7 / RFU, SLC12A2 / Fold change vs veh, SLC12A2 / RFU, IBTK / Fold change vs veh, IBTK / RFU, ESF1 / Fold change vs veh, ESF1 / Fold change vs veh, TMEM50B / RFU, TAOK1 / Fold change vs veh, TAOK1 / RFU, ACBD3 / Fold change vs veh, ACBD3 / RFU, TMA16 / Fold change vs veh, TMA16 / RFU, RWDD3 / Fold change vs veh, RWDD3 / RFU, BCAT1 / Fold change vs veh, BCAT1 / RFU, EDEM3 / Fold change vs veh, EDEM3 / RFU, TMEM33 / Fold change vs veh, TMEM33 / RFU, WDR75 / Fold change vs veh, WDR75 / RFU, AHCTF1 / Fold change vs veh, AHCTF1 / RFU, TFRC / Fold change vs veh, TFRC / RFU, ZDHHC17 / Fold change vs veh, ZDHHC17 / RFU, NOM1 / Fold change vs veh, NOM1 / RFU, ARL8B / Fold change vs veh, ARL8B / RFU, ZBTB11 / Fold change vs veh, ZBTB11 / RFU, TAMM41 / Fold change vs veh, TAMM41 / RFU, KIAA1704 /// LOC100996395 / Fold change vs veh, KIAA1704 /// LOC100996395 / RFU, ING1 / Fold change vs veh, ING1 / RFU, TRMT61B / Fold change vs veh, TRMT61B / RFU, FUBP3 / Fold change vs veh, FUBP3 / RFU, TP53 / Fold change vs veh, TP53 / RFU, TNKS2 / Fold change vs veh, TNKS2 / RFU, ZFP14 / Fold change vs veh, ZFP14 / RFU, ACTR2 / Fold change vs veh, ACTR2 / RFU, PPP3R1 / Fold change vs veh, PPP3R1 / RFU, PIK3R1 / Fold change vs veh, PIK3R1 / RFU, HNRNPA1 / Fold change vs veh, HNRNPA1 / RFU, RNF170 / Fold change vs veh, RNF170 / RFU, ZNF28 / Fold change vs veh, ZNF28 / RFU, RNGTT / Fold change vs veh, RNGTT / RFU, OGT / Fold change vs veh, OGT / RFU, BRD1 / Fold change vs veh, BRD1 / RFU, MARS / Fold change vs veh, MARS / RFU, ZNF655 / Fold change vs veh, ZNF655 / RFU, FAHD1 / Fold change vs veh, FAHD1 / RFU, BDP1 / Fold change vs veh, BDP1 / RFU, LRRCC1 / Fold change vs veh, LRRCC1 / RFU, ARID1A / Fold change vs veh, ARID1A / RFU, ZNF146 / Fold change vs veh, ZNF146 / RFU, ZNF330 / Fold change vs veh, ZNF330 / RFU, GPN3 / Fold change vs veh, GPN3 / RFU, C9orf123 / Fold change vs veh, C9orf123 / RFU, N4BP2L2 / Fold change vs veh, N4BP2L2 / RFU, ARFIP1 / Fold change vs veh, ARFIP1 / RFU, FAM179B / Fold change vs veh, FAM179B / RFU, BCL10 / Fold change vs veh, BCL10 / RFU, UHRF1BP1L / Fold change vs veh, UHRF1BP1L / RFU, BET1 / Fold change vs veh, BET1 / RFU, CNOT2 / Fold change vs veh, CNOT2 / RFU, ZNF268 / Fold change vs veh, ZNF268 / Fold change vs veh, ZNF507 / RFU, DGCR2 / Fold change vs veh, DGCR2 / RFU, WDSUB1 / Fold change vs veh, WDSUB1 / Fold change vs veh, HSP90B1 /// MIR3652 / RFU, ADSS / Fold change vs veh, ADSS / RFU, GK / Fold change vs veh, GK / RFU, ZNF148 / Fold change vs veh, ZNF148 / RFU, TAF9 / Fold change vs veh, TAF9 / RFU, SLC1A5 / Fold change vs veh, SLC1A5 / RFU, SLMO2 / Fold change vs veh, SLMO2 / RFU, ABCC4 / Fold change vs veh, ABCC4 / RFU, LOC101060439 /// RAP1B / Fold change vs veh, LOC101060439 /// RAP1B / RFU, RFX7 / Fold change vs veh, RFX7 / RFU, GTPBP10 / Fold change vs veh, GTPBP10 / RFU, CNEP1R1 / Fold change vs veh, CNEP1R1 / RFU, BIVM-ERCC5 /// ERCC5 / Fold change vs veh, BIVM-ERCC5 /// ERCC5 / RFU, ILF3 / Fold change vs veh, ILF3 / RFU 11762660_at / Fold change /veh 11762660_at / RFU VCAN (11757783_s_at) / Fold change /veh VCAN (11757783_s_at) / RFU DDX43 (11728927_at) / Fold change /veh DDX43 (11728927_at) / RFU KRT8 (11758188_x_at) / Fold change /veh KRT8 (11758188_x_at) / RFU NKD1 (11759106_at) / Fold change /veh NKD1 (11759106_at) / RFU SRD5A1 (11742802_a_at) / Fold change /veh SRD5A1 (11742802_a_at) / RFU TPSAB1 /// TPSB2 (11721975_s_at) / Fold change /veh TPSAB1 /// TPSB2 (11721975_s_at) / RFU GSTM3 (11746129_a_at) / Fold change /veh GSTM3 (11746129_a_at) / RFU IL23R (11737362_x_at) / Fold change /veh IL23R (11737362_x_at) / RFU TMEM51 (11727254_a_at) / Fold change /veh TMEM51 (11727254_a_at) / RFU PIWIL2 (11732686_x_at) / Fold change /veh PIWIL2 (11732686_x_at) / RFU ORM1 (11744905_x_at) / Fold change /veh ORM1 (11744905_x_at) / RFU CCDC152 (11743942_at) / Fold change /veh CCDC152 (11743942_at) / RFU ECM1 (11717891_a_at) / Fold change /veh ECM1 (11717891_a_at) / RFU IL23R (11748794_a_at) / Fold change /veh IL23R (11748794_a_at) / RFU TNFAIP8L3 (11732012_x_at) / Fold change /veh TNFAIP8L3 (11732012_x_at) / RFU MBOAT4 (11741988_at) / Fold change /veh MBOAT4 (11741988_at) / RFU 11764193_at / Fold change /veh 11764193_at / RFU TMEM53 (11763286_at) / Fold change /veh TMEM53 (11763286_at) / RFU MAGEB2 (11727129_at) / Fold change /veh MAGEB2 (11727129_at) / RFU TMEM200A (11744735_a_at) / Fold change /veh TMEM200A (11744735_a_at) / RFU CCDC152 (11751479_a_at) / Fold change /veh CCDC152 (11751479_a_at) / RFU FAM211A (11726209_a_at) / Fold change /veh FAM211A (11726209_a_at) / RFU RGS16 (11746705_a_at) / Fold change /veh RGS16 (11746705_a_at) / RFU VCAN (11755009_s_at) / Fold change /veh VCAN (11755009_s_at) / RFU RHOB (11743442_s_at) / Fold change /veh RHOB (11743442_s_at) / RFU RGS16 (11720943_a_at) / Fold change /veh RGS16 (11720943_a_at) / RFU RGS16 (11720944_at) / Fold change /veh RGS16 (11720944_at) / RFU, VPS4B / Fold change vs veh, VPS4B / RFU, CREB1 / Fold change vs veh, CREB1 / RFU, DNAJC13 / Fold change vs veh, DNAJC13 / RFU, GNAQ / Fold change vs veh, GNAQ / RFU, CDK5R1 / Fold change vs veh, CDK5R1 / RFU, ZRANB3 / Fold change vs veh, ZRANB3 / RFU, CUL4A / Fold change vs veh, CUL4A / RFU, CCNY / Fold change vs veh, CCNY / RFU, UFL1 / Fold change vs veh, UFL1 / RFU, COG3 / Fold change vs veh, COG3 / RFU, DIAPH2 / Fold change vs veh, DIAPH2 / RFU, SKA2 / Fold change vs veh, SKA2 / RFU, AFF3 / Fold change vs veh, AFF3 / RFU, LMF1 / Fold change vs veh, LMF1 / RFU, IPO11 / Fold change vs veh, IPO11 / RFU, DFFB / Fold change vs veh, DFFB / RFU, FOXP1 / Fold change vs veh, FOXP1 / RFU, CARD8 / Fold change vs veh, CARD8 / RFU, STRN3 / Fold change vs veh, STRN3 / RFU, ADK / Fold change vs veh, ADK / RFU, RASSF2 / Fold change vs veh, RASSF2 / RFU, WIPF1 / Fold change vs veh, WIPF1 / RFU, LARP1B / Fold change vs veh, LARP1B / RFU, RASA1 / Fold change vs veh, RASA1 / RFU, RB1 / Fold change vs veh, RB1 / RFU, PPFIA1 / Fold change vs veh, PPFIA1 / RFU, MAT2A / Fold change vs veh, MAT2A / RFU, CCT5 / Fold change vs veh, CCT5 / RFU, WDR92 / Fold change vs veh, WDR92 / RFU, CUX1 / Fold change vs veh, CUX1 / RFU, TTC7A / Fold change vs veh, TTC7A / RFU, TMEM135 / Fold change vs veh, TMEM135 / RFU, DEPTOR / Fold change vs veh, DEPTOR / RFU, CPM / Fold change vs veh, CPM / RFU, DNAJB6 / Fold change vs veh, DNAJB6 / RFU, CACNA2D3 / Fold change vs veh, CACNA2D3 / RFU, DTX4 / Fold change vs veh, DTX4 / RFU, TFCP2 / Fold change vs veh, TFCP2 / RFU, GMCL1 /// GMCL1P1 / Fold change vs veh, GMCL1 /// GMCL1P1 / RFU, AEBP2 / Fold change vs veh, AEBP2 / RFU, SNHG1 /// SNORD22 /// SNORD25 /// SNORD26 /// SNORD27 /// SNORD28 /// SNORD29 /// SNORD31 / Fold change vs veh, SNHG1 /// SNORD22 /// SNORD25 /// SNORD26 /// SNORD27 /// SNORD28 /// SNORD29 /// SNORD31 / Fold change (Aza/veh), C12orf56 (ProbeSet 11735607_a_at) / Fold change (ACY-1035/veh), C12orf56 (ProbeSet 11735607_a_at) / Fold change (Aza/veh), FGFR1OP (ProbeSet 11751329_s_at) / Fold change (ACY-1035/veh), FGFR1OP (ProbeSet 11751329_s_at) / Fold change (Aza/veh), VPS36 (ProbeSet 11739960_a_at) / Fold change (ACY-1035/veh), VPS36 (ProbeSet 11739960_a_at) / RFU SYPL1 (11715823_x_at) / Fold change /veh SYPL1 (11715823_x_at) / RFU IGFBP7 (11715501_s_at) / Fold change /veh IGFBP7 (11715501_s_at) / RFU REEP3 (11722064_at) / Fold change /veh REEP3 (11722064_at) / RFU IGLL1 (11728026_x_at) / Fold change /veh IGLL1 (11728026_x_at): dose or concentration left out as unconfirmed
Conditions: MV-4-11 cells, 48 hours

SMILES: Nc1ccc(-c2cccs2)cc1NC(=O)c1ccc2c(c1)cc(C1CC1)n2CCN1CCOCC1 [ACY-1035]
- Fold change /veh OR2T12 /// OR2T33 /// OR2T8 (11738714_s_at): 1.06
